# Test system: MDA-MB-468 cell line
# Experiment: Resazurin viability assay
# Format: cell-based, human
# Conditions: MDA-MB-468 cells
# Experimental: Cell Culture. The MDA-MB-468 cell line was from ATCC. This cell line was established from a pleural effusion of patient with metastatic breast adenocarcinoma. The cells were maintained in RPMI medium supplemented with 10% (v/v) FBS, 0.3 mg/mL L-glutamine, and 0.1 mg/mL gentamicin at 37° C. in 5% CO2. Sub-culture using trypsin-EDTA was performed every 3-4 days with a split ratio of 1:3-1:6 to ensure actively proliferating cells. Resazurin Viability Assay. Cells were seeded in fully supplemented medium at a density of 7 000 cells per well in 96 well plates. After 24 hrs of cultivation, when the cells were 60% confluent, the medium was replaced with serum free medium to ensure synchronization of the cells and to increase cell sensitivity to treatment. Following 16 hrs of serum starvation, the medium was replaced with fresh serum free medium with or without Compound […], Norway), and NVP-BEZ235 (Cayman Chemicals, US) or solvent (DMSO, Sigma Aldrich, US). The cells were observed under the microscope to evaluate possible morphology changes and signs of stress before the addition of resazurin according to the manufacturers instructions (RnD Systems, UK). Resazurin was metabolized for 2 hrs (37° C., 5% CO2) before fluorescence was read at 544 nm excitation and 590 nm emission wavelengths (BioTek Synergy HT).
structure (smiles),measurement,setting,value
Cn1c(=O)n(-c2ccc(C(C)(C)C#N)cc2)c2c3cc(-c4cnc5ccccc5c4)ccc3ncc21 [BEZ235],cytotoxicity at 5 µM,"Homo sapiens, serum free medium, 5 μM of each inhibitor, 24 hrs of treatment, read-out: reduction of viability",~30%
same,"toxicity to the cells, each inhibitor alone (initial experiments)","25-100 μM, results not shown",toxic
same,"signs of cellular stress or cytotoxicity, each inhibitor alone (initial experiments)","doses 1-5 μM, results not shown",little or no signs of cellular stress of cytotoxicity
